For one assay, the target named is dopamine D3 receptor (Macaca mulatta, UniProt F6U709). Kind of assay: radioligand saturation binding by quantitative autoradiography on brain sections.
Assay [1] addresses dopamine D3 receptor (hD3) (Homo sapiens, UniProt P35462). The assay is described as follows: radioligand saturation binding.
Assay [2] has as its target dopamine D3 receptor (rD3) (Rattus norvegicus, UniProt P19020). The assay is described as follows: radioligand saturation binding.

Our source for the Kd values is paper PMC2783604 (Synapse (New York, N.Y.), 2009).

Structures are written as SMILES.

What is called Kd is the constant that tells how readily two partners part at equilibrium. A higher Kd goes with lower affinity.

Chain of dopamine D3 receptor (rD3) (P19020 whole entry): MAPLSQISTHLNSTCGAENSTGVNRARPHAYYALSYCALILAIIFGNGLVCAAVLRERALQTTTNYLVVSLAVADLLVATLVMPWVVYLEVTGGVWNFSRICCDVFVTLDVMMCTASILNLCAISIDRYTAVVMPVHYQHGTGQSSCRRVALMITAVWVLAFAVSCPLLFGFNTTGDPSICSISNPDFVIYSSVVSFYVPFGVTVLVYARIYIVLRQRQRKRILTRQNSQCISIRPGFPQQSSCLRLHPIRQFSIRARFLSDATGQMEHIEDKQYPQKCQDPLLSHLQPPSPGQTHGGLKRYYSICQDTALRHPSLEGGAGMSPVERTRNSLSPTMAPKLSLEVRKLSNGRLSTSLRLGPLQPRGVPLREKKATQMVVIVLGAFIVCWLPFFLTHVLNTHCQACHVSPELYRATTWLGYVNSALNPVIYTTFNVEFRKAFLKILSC
Chain of dopamine D3 receptor (F6U709 1-400): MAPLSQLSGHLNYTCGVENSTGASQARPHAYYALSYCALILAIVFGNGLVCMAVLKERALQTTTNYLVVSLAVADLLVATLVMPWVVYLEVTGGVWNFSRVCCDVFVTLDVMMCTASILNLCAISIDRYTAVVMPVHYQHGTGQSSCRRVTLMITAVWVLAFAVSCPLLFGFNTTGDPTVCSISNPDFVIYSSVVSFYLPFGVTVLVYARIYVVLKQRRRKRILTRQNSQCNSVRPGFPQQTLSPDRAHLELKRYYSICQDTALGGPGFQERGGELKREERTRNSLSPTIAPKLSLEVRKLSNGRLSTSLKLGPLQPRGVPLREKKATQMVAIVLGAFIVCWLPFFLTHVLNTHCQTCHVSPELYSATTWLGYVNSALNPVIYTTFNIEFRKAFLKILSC
Chain of dopamine D3 receptor (hD3) (P35462 whole entry): as the sequence (F6U709 1-400) above, with P3S, V17A, V101I, T151A, R247P, R281K counted along it

On dopamine D3 receptor, `COc1ccccc1N1CCN(CCCCNC(=O)c2ccc(N(C)C)cc2)CC1` [WC-10, 4-(Dimethylamino)-N-(4-(4-(2-methoxyphenyl)piperazin-1-yl)butyl)benzamide] yielded an equilibrium dissociation constant (Kd) of 0.0011 µM.
As to `CCN1CCC[C@H]1CNC(=O)c1c(O)c(Cl)cc(Cl)c1OC` [[^3H]raclopride], the figures for the Kd in assay [1] and in assay [2] were 0.018 ± 0.001 µM and 0.0171 ± 0.0017 µM, respectively.
